Reference: patent US12214008B2, “Protein interfaces” (SyntheX, Inc., priority 2016, dated 2025)
Entries after “also recorded” stand apart in the source; their conditions may differ. Residues, ends and D or L forms follow the SMILES beside them. Groups on a side chain read outwards from the residue. *: point of attachment. 5FAM = O=C1OC2(c3ccc(O)cc3Oc3cc(O)ccc32)c2ccc(C(=O)*)cc21; Ahx = NCCCCCC(=O)O

Legend:
[1] = test system: SSP-25 cells; assay: MTT growth inhibition assay; format: cell-based; conditions: 5 μM or 10 μM, 48 hours of cell growth, vs water mock
Method: To assess the growth inhibitory properties of compounds disclosed herein, 5 μM or 10 μM of compounds 1, 3, and 5 were tested against a water mock treatment for growth inhibition of SSP-25 cells using an MTT assay after 48 hours of cell growth.

[2] = test system: SSP-25 cells; assay: xCELLigence cell death assay; format: cell-based; conditions: for rescue of compound 10-induced cell death by ruthenium red: 40 μM Ruthenium red added to cells treated with 10 μM compound 10
Method: Further, singly-dosed cells continued to recover, which indicated reduced general cytotoxicity of the compound in the media or the lysed cells.
To optimize cellular activity, compounds were tested in xCELLigence cell death assays against various cell lines. An example of the workflow used is shown using A549 cells and compound 10 in FIGS. 15 and 16. […] Data from xCELLigence traces at different compound concentrations from FIG. 15 was then used to generate a dose-response curve, which was then subjected to nonlinear regression using a sigmoidal dose-response model to generate IC50s and R2 values for cell death for each compound/cell line combination (FIG. 16).
To further investigate the hypothesis that peptide binding to RAD51 in cells causes cell death via increases in intracellular free calcium levels, compound 10 alone and in combination with two different intracellular calcium chelators (1,2-Bis(2-aminophenoxy) ethane-N,N,N′,N′-tetraacetic acid tetrakis(acetoxymethyl ester) aka “BAPTA-AM”, and ammoniated ruthenium oxychloride aka “ruthenium red”) was tested in an xCELLigence™ cell death assay as in Example 3. The intracellular calcium chelators alone were also evaluated on the cells.

[3] = test system: GM08505, Blm cells
Method: To assess the ability of compounds disclosed herein to rescue the drug-sensitivity of Bloom's Syndrome patient cells, GM08505, Blm cells were treated with PBS, 5 μM etoposide, or 5 μM etoposide and 10 μM compound 5.

[4] = test system: HeLa; conditions: compound 5 at 5 μM, compound 1 at 10 μM
Method: (§1) To assess the specificity of compounds disclosed herein in targeting cancers with mutations in the BRCA2 pathway, compounds 1 and 5 were tested against HeLa (human cervical cancer) and SSP-25 cells (cholangiocarcinoma cell line) (FIG. 2). To measure killing of the cells by compounds 1 and 5, a cell stain (CytoTox Red™) was used, which can be measured spectrophotometrically, and is indicative of cell viability. First, 5,000 cells were incubated in 96-well culture plates overnight. The media (RPMI with 10% FBS) was removed and replaced with serum free media (RPMI) containing 125 nM CytoTox Red™. FITC-labeled compounds 5 and 1 were added to concentrations of 5 μM and 10 μM, respectively, and imaging commenced using an IncuCyte™ instrument using 15 minute time points. 2× serum-containing media was added after one hour incubation, and the cells were imaged every 2 hours. To detect CytoTox Red™ the following parameters were used: Excitation Wavelength: 585 nm; Passband: [565,605] nm and Emission Wavelength: 635 nm; Passband: [625, 705] nm. To detect compounds 5 and 1 using the FITC label, the following parameters were used: Excitation Wavelength: 460 nm; Passband: [440,480] nm and Emission Wavelength: 524 nm; Passband: [504,544] nm was used.

[5] = test system: SSP-25 cells; conditions: compound 5 at 5 μM, compound 1 at 10 μM; vs PBS
Method: as §1

[6] = target: T1, RAD51 (Homo sapiens, UniProt Q06609); assay: microscale thermophoresis; format: binding; conditions: 0 vs 1 mM Ca2+
T1 sequence (Q06609 1-339): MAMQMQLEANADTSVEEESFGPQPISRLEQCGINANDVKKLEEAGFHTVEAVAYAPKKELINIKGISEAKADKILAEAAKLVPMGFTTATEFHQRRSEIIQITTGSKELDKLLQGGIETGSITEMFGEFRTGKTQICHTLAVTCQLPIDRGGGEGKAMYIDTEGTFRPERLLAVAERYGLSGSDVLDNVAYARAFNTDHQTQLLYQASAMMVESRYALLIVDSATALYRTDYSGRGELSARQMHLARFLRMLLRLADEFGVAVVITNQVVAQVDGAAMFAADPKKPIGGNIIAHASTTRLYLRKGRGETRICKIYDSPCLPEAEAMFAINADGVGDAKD
Method: To test the interaction between calcium binding and peptide binding to RAD51, the Kds of active (Compound 5, 10) peptides for RAD51 were tested by a microscale thermophoresis assay, and the Kd of compound 5 was additionally performed in the presence of 1 mM calcium.
Microscale thermophoresis was performed as previously described (see, for e.g. Jerabek-Willemsen, M., Wienken, C. J., Braun, D., Baaske, P. & Duhr, S. Molecular interaction studies using microscale thermophoresis. Assay Drug Dev. Technol. 9, 342-353 (2011)). The affinity of the Compound was measured using the Monolith NT.115 from Nanotemper Technologies. Rad51 was fluorescently labelled according to the manufacturer's protocol and the labelled protein used for each assay was about 500 nM. A solution of unlabelled peptide was diluted for appropriate serial concentration gradient. The samples were loaded into silica capillaries (Polymicro Technologies). Measurements were performed at room temperature in buffer containing PBS, 0.1% Tween 20, 0.5 mM ATP, 2.5 uM ssDNA, with 1 mM CaCl2 (when mentioned). Measurements were done using 12% LED power and 60% MST power. The assays were repeated three times for each affinity measurement. Data analyses were performed using Nanotemper Analysis software and OriginPro 8.0 software provided by the manufacturer.

[7] = test system: PC3 cells; assay: xCELLigence cell death assay; conditions: 60 μM at 24 hours
Method: First, 5,000 PC3 cells were plated, and adherence and growth was measured for 24 hours using live measurements of current impedance through the plate using the xCELLigence™ instrument. […] This was repeated again at the 124 hour mark.

[8] = test system: SSP-25 cells; assay: growth assay (percent confluence); format: cell-based; conditions: 5 μM or 10 μM, compared to PBS
Method: A growth assay was performed using SSP-25 cells with 5 μM or 10 μM of compound 1. […] The experimental protocol described in Example 3 was used for the growth assay.
The same growth assay was repeated using 10 μM of compound 1 and compound 2. Compound 2 contains a single substitution within the core consensus sequence, which interrupts the binding of compound 2 to RAD51.

Compound: KQSLRLGLSRLARVKRLHPGARRRRRRRR [Compound 3]
- growth inhibition of SSP-25 cells [1]: dose-dependent effect on the growth of SSP-25

Compound: CC(=O)OCOC(=O)CN(CC(=O)OCOC(C)=O)c1ccccc1OCCOc1ccccc1N(CC(=O)OCOC(C)=O)CC(=O)OCOC(C)=O [BAPTA-AM, 1,2-Bis(2-aminophenoxy) ethane-N,N,N′,N′-tetraacetic acid tetrakis(acetoxymethyl ester)]
- rescue of compound 10-induced cell death by BAPTA-AM ([2]; 10 μM BAPTA-AM added to cells treated with 10 μM compound 10): able to counteract the cell-death inducing effects of compound 10; also recorded: rescues cell death relative to compound alone; also recorded: rescues cell death due to compound 10

Compound: COc1cc([C@@H]2c3cc4c(cc3[C@@H](O[C@@H]3O[C@@H]5CO[C@@H](C)O[C@H]5[C@H](O)[C@H]3O)[C@H]3COC(=O)[C@H]23)OCO4)cc(OC)c1O [etoposide, reference compound]
- growth of Blm cells (percent confluence) ([3]; 5 μM etoposide alone): growth of the Blm cells was affected

Compound: N.N.N.N.N.N.N.N.N.N.N.N.N.N.[Cl-].[Cl-].[Cl-].[Cl-].[Cl-].[Cl-].[O-2].[O-2].[Ru+3].[Ru+3].[Ru+4] [Ruthenium red, ammoniated ruthenium oxychloride]
- rescue of compound 10-induced cell death by ruthenium red [2]: able to counteract the cell-death inducing effects of compound 10; also recorded: rescues cell death relative to compound alone
- rescue of compound 10-induced cell death by ruthenium red ([2]; listed as ruthenium red): rescues cell death due to compound 10

Compound: CSCC[C@H](NC(=O)[C@H](CCCNC(=N)N)NC(=O)[C@H](CO)NC(=O)[C@@H](NC(=O)[C@H](CCCNC(=N)N)NC(=O)[C@H](CC(C)C)NC(=O)[C@H](CCCNC(=N)N)NC(=O)[C@@H](NC(=O)CNC(=O)[C@H](CC(C)C)NC(=O)[C@H](CCCNC(=N)N)NC(=O)[C@H](CCCCN)NC(=O)[C@H](CCCNC(=N)N)NC(=O)[C@H](CCCNC(=N)N)NC(=O)[C@H](CCCNC(=N)N)NC(=O)[C@H](CCCNC(=N)N)NC(=O)[C@H](CCCNC(=N)N)NC(=O)[C@H](CCCNC(=N)N)NC(=O)[C@H](CCCNC(=N)N)NC(=O)[C@H](CCCCNC(=O)CCCCCNC(=O)c1ccc2c(c1)C(=O)OC21c2ccc(O)cc2Oc2cc(O)ccc21)NC(C)=O)C(C)C)C(C)C)C(=O)N[C@@H](CC(C)C)C(N)=O [Compound 5] (Ac-K([Ahx-5FAM])RRRRRRRKRLGVRLRVSRML-NH2)
- growth inhibition of SSP-25 cells [1]: strongest inhibitory effect, regardless of concentration
- efficacy in acidified media ([2]; 30 μM added at 72 hours to previously untreated cells): efficacy of compound 5 in acidified media
- cell death kinetics (cell index) ([2]; 30 μM compound 5 added at 20 hours): acute cell death kinetics
- cell death (CytoTox Red staining) in HeLa cells [4]: little cell death is generated in the HeLa cells compared to the SSP-25 cells
- cell death (CytoTox Red staining) in SSP-25 cells [5]: greatest efficacy in the SSP-25 cells
- rescue of etoposide-induced growth defect of Blm cells (percent confluence) ([3]; 5 μM etoposide and 10 μM compound 5, comparable to PBS): able to rescue the hypersensitivity of a Bloom's cell line (GM08505) to a genotoxic stress (etoposide); also recorded: suppression of cell growth defects induced by etoposide
- increase of Kd when calcium (Ca2+) raised from 0 to 1 mM [6]: 3.4 fold
- cell death of PC3 cells (cell index) [7]: acute cell death kinetics; also recorded: highly potent
- PC3 cells eliminated ([7]; 100 μM more at 84 and 124 hours, compared to compound 6 and PBS controls): over 75%

Compound: Ac-K(C6_5FAM)-QSLRLGLSRLARVKRLHPGARRRRRRRR-NH2 (Ac-K(C6_5FAM)QSLRLGLSRLARVKRLHPGARRRRRRRR-NH2) [Compound 1]
- growth inhibition of SSP-25 cells [1]: dose-dependent effect on the growth of SSP-25
- percent confluence of SSP-25 cells [8]: decreased the percent confluence of the cells
